Our source for the IC50 values is BindingDB's records for doi:10.1021/jm00164a020 (Merck Sharp & Dohme Research Laboratories, 1990).

Molecules are shown by their SMILES.

The term IC50 denotes the concentration needed to halve the response being measured. A high value points to a need for much substance.

This assay addresses Gastrin/cholecystokinin type B receptor (Cavia porcellus). Put plainly: Inhibition of binding of [125I]gastrin to Cholecystokinin type B receptor from guinea pig gastric glands.
As for `O=C(O)CC[C@H](NC(=O)c1cc2ccccc2[nH]1)C(=O)N(C1CCCCC1)C1CCCCC1`, the IC50 came to 4.1 µM. Under `CCCCCN(CCCCC)C(=O)C(CCC(=O)OCc1ccccc1)NC(=O)Nc1ccc(Cl)cc1` (centres undefined) stands 44 µM; under `CCCCCN(CCCCC)C(=O)C(CCC(=O)N1CCCC1)NC(=O)Nc1ccc(Cl)cc1` (centres undefined), 0.43 µM. As for `CCCCCN(CCCCC)C(=O)[C@@H](CCC(=O)O)NC(=O)Nc1cccc(OC)c1`, the IC50 came out at 13 µM. This IC50 is about 30-fold higher than that of the compound before.
